Where two headings read alike, the source gives them in different places.
What was measured:
C4-2B/MDVR = assay: MTT cell viability, 7 days; assay type: cell-based; settings: 168 h
Method: (§1) Cells were seeded in 96-well plates and treated with drugs the next day. After 7 days, viability was assessed using MTT assay.
(§2) (C) Western blot analysis of AR and AR-V7 in C4-2B and C4-2B/MDVR cells after 48-hour ITRI-148 treatment. […] DEGs were determined relative to DMSO or pLKO.1 vector control. […] RPL13A was used for normalization. […] AR, AR-V7, and PSA expression in the drug-treated cells were detected across treatment timepoints.

CWR22Rv1 = assay: MTT cell viability, 7 days; assay type: cell-based; settings: 168 h
Method: as §1, §2

LNCaP95 = assay: MTT cell viability, 7 days; assay type: cell-based; settings: LNCaP-95, 168 h
Method: as §1, §2

LNCaP = assay: MTT cell viability, 7 days; assay type: cell-based; settings: Homo sapiens, 168 h
Method: as §1, §2

PC3 = assay: MTT cell viability, 7 days; assay type: cell-based
Method: as §1, §2

PNT2 = assay: MTT cell viability, 7 days; assay type: cell-based
Method: as §1, §2

VCaP = assay: MTT cell viability, 7 days; assay type: cell-based; settings: Homo sapiens, 168 h
Method: as §1, §2

[1] = In vitro stability in plasma; assay type: in vitro ADME; settings: for Remaining of intact drug (%): 1 μM, incubation up to 4 hours; for half-life at 1 μM: read-out: Plasma Stability t1/2
Method: The stability of ITRI-148 was assessed in plasma across four species: humans, dogs, rats, and mice. ITRI-148 added to pre-warmed plasma at 1 μM was maintained at the designated temperature, and aliquots were collected at 0, 0.5, 1, 2, and 4 hours after incubation. At each time point, 20 μL of the samples was taken to terminate the reaction, followed by LC-MS/MS analysis to determine the remaining compound concentration. Data from duplicated experiments was calculated and presented as mean ± SD.

[2] = Repeated-dose toxicity study: absolute organ weights; assay type: in vivo, Sprague-Dawley rats; settings: rats
Method: Repeated-dose toxicity and toxicokinetic studies
Repeated-dose oral toxicity study and toxicokinetic (TK) profiling was conducted in Sprague-Dawley rats. ITRI-148 was administered once daily using oral gavage at doses of 100, 300, 600, and 1000 mg/kg/day for 7 consecutive days, followed by a 7-day recovery period. Each dose group comprised 3 animals designated for toxicokinetic (TK) analysis and 6 animals for dose-range finding (DRF) evaluation. Clinical observations, body weights, and food consumption were monitored daily throughout the dosing and recovery periods. […]
All samples were analyzed in duplicate. Hematology and serum clinical chemistry analyses were performed on Day 7 (end of dosing) and Day 14 (end of recovery). At necropsy, organ weights (including heart, liver, kidney, spleen, thymus, and adrenal glands) were recorded, and gross pathological changes were examined. All procedures were conducted in compliance with institutional animal care and use guidelines. […]
Targeting androgen receptor and the variants by an orally bioavailable
Proteolysis Targeting Chimeras compound in castration resistant prostate cancer

[3] = PO 100 mg/kg/day 7 days, Day 14 (recovery)
[4] = PO 300 mg/kg/day 7 days, Day 14 (recovery)
[5] = PO 600 mg/kg/day 7 days, Day 14 (recovery)
[6] = PO 1000 mg/kg/day 7 days, Day 7
[7] = PO 1000 mg/kg/day 7 days, Day 14 (recovery)

O=C1CCC(N2C(=O)c3cccc(NCC(=O)N4CCC(N5CCC(C#Cc6ccc(C7CCN(C8=Nn9c(nnc9C(F)(F)F)CC8)CC7)cc6)CC5)CC4)c3C2=O)C(=O)N1 (stereo not drawn) [ITRI-148]
IC50 (C4-2B/MDVR): 1.6 µM
IC50 (CWR22Rv1): 2.15 µM
IC50 (LNCaP95): 1.96 µM
IC50 (LNCaP): 0.17 µM
sensitivity of cell viability (PC3; AR-negative CRPC cells (PC3)): insensitive
IC50 (PC3; Homo sapiens, PC-3, PC3, MTT): > 10 µM
IC50 (PNT2; Homo sapiens, PNT2, MTT): > 10 µM
sensitivity of cell viability (PNT2; normal prostate epithelial cells (PNT2)): insensitive
IC50 (VCaP): 0.89 µM
Remaining of intact drug (%) ([1]; dog plasma): 79.4 ± 0.6%
half-life at 1 μM ([1]; dog plasma): > 4 h
Remaining of intact drug (%) ([1]; human plasma): 86.9 ± 5.2%
half-life at 1 μM ([1]; human plasma): > 4 h
Remaining of intact drug (%) ([1]; rat plasma): 62.1 ± 5.8%
half-life at 1 μM ([1]; rat plasma): > 4 h
Absolute organ weight: Heart ([2]; PO 100 mg/kg/day 7 days, Day 7): 1.417 ± 0.443 g
Absolute organ weight: Kidney ([2]; PO 100 mg/kg/day 7 days, Day 7): 2.656 ± 0.136 g
Absolute organ weight: Liver ([2]; PO 100 mg/kg/day 7 days, Day 7): 13.915 ± 1.565 g
Absolute organ weight: Spleen ([2]; PO 100 mg/kg/day 7 days, Day 7): 0.536 ± 0.112 g
Absolute organ weight: Thymus ([2]; PO 100 mg/kg/day 7 days, Day 7): 0.419 ± 0.079 g
Absolute organ weight: adrenal glands ([2]; PO 100 mg/kg/day 7 days, Day 7): 0.056 ± 0.012 g
Absolute organ weight: Heart [2, 3]: 1.139 ± 0.079 g
Absolute organ weight: Kidney [2, 3]: 2.65 ± 0.021 g
Absolute organ weight: Liver [2, 3]: 11.06 ± 0.639 g
Absolute organ weight: Spleen [2, 3]: 0.538 ± 0.05 g
Absolute organ weight: Thymus [2, 3]: 0.319 ± 0.039 g
Absolute organ weight: adrenal glands [2, 3]: 0.084 ± 0.059 g
Absolute organ weight: Heart ([2]; PO 300 mg/kg/day 7 days, Day 7): 1.369 ± 0.173 g
Absolute organ weight: Kidney ([2]; PO 300 mg/kg/day 7 days, Day 7): 2.966 ± 0.426 g
Absolute organ weight: Liver ([2]; PO 300 mg/kg/day 7 days, Day 7): 13.69 ± 1.088 g
Absolute organ weight: Spleen ([2]; PO 300 mg/kg/day 7 days, Day 7): 0.558 ± 0.035 g
Absolute organ weight: Thymus ([2]; PO 300 mg/kg/day 7 days, Day 7): 0.377 ± 0.079 g
Absolute organ weight: adrenal glands ([2]; PO 300 mg/kg/day 7 days, Day 7): 0.058 ± 0.022 g
Absolute organ weight: Heart [2, 4]: 1.252 ± 0.229 g
Absolute organ weight: Kidney [2, 4]: 2.748 ± 0.366 g
Absolute organ weight: Liver [2, 4]: 12.08 ± 0.721 g
Absolute organ weight: Spleen [2, 4]: 0.629 ± 0.088 g
Absolute organ weight: Thymus [2, 4]: 0.314 ± 0.042 g
Absolute organ weight: adrenal glands [2, 4]: 0.06 ± 0.016 g
Absolute organ weight: Heart ([2]; PO 600 mg/kg/day 7 days, Day 7): 1.269 ± 0.209 g
Absolute organ weight: Kidney ([2]; PO 600 mg/kg/day 7 days, Day 7): 2.661 ± 0.129 g
Absolute organ weight: Liver ([2]; PO 600 mg/kg/day 7 days, Day 7): 13.396 ± 2.201 g
Absolute organ weight: Spleen ([2]; PO 600 mg/kg/day 7 days, Day 7): 0.509 ± 0.093 g
Absolute organ weight: Thymus ([2]; PO 600 mg/kg/day 7 days, Day 7): 0.319 ± 0.054 g
Absolute organ weight: adrenal glands ([2]; PO 600 mg/kg/day 7 days, Day 7): 0.058 ± 0.001 g
Absolute organ weight: Heart [2, 5]: 1.242 ± 0.08 g
Absolute organ weight: Kidney [2, 5]: 2.759 ± 0.179 g
Absolute organ weight: Liver [2, 5]: 12.382 ± 0.877 g
Absolute organ weight: Spleen [2, 5]: 0.594 ± 0.066 g
Absolute organ weight: Thymus [2, 5]: 0.394 ± 0.041 g
Absolute organ weight: adrenal glands [2, 5]: 0.07 ± 0.027 g
Absolute organ weight: Heart [2, 6]: 1.259 ± 0.118 g
Absolute organ weight: Kidney [2, 6]: 3.022 ± 0.127 g
Absolute organ weight: Liver [2, 6]: 13.349 ± 1.256 g
Absolute organ weight: Spleen [2, 6]: 0.388 ± 0.035 g
Absolute organ weight: Thymus [2, 6]: 0.121 ± 0.021 g
Absolute organ weight: adrenal glands [2, 6]: 0.068 ± 0.012 g
Absolute organ weight: Heart [2, 7]: 1.306 ± 0.066 g
Absolute organ weight: Kidney [2, 7]: 2.763 ± 0.229 g
Absolute organ weight: Liver [2, 7]: 11.072 ± 0.774 g
Absolute organ weight: Spleen [2, 7]: 0.506 ± 0.023 g
Absolute organ weight: Thymus [2, 7]: 0.355 ± 0.119 g
Absolute organ weight: adrenal glands [2, 7]: 0.062 ± 0.009 g
